Test results reported in patent US20200288710A1, “SUBSTITUTED SULPHONAMIDES FOR CONTROLLING ANIMAL PESTS” (BAYER CROPSCIENCE AKTIENGESELLSCHAFT, priority 2016, published 2020).

Tests used:
Myzus persicae [1] = assay: Myzus persicae oral test; assay type: in vivo; details: 120 h, 20 ppm, oral uptake, after 5 days, read-out: efficacy
Procedure: Myzus persicae—Oral Test Solvent: 100 parts by weight of acetone To produce a suitable preparation of active compound, 1 part by weight of active compound is dissolved using the specified parts by weight of solvent and made up with water until the desired concentration is attained. 50 μl of the active compound preparation are transferred into microtitre plates and made up to a final volume of 200 μl with 150 μl of IPL41 insect medium (33%+15% sugar). Subsequently, the plates are sealed with parafilm, which a mixed population of green peach aphids (Myzus persicae) within a second microtitre plate is able to puncture and imbibe the solution through it. After 5 days, the efficacy in % is determined. 100% means that all the aphids have been killed; 0% means that no aphids have been killed.

Myzus persicae [2] = assay: Myzus persicae spray test (Chinese cabbage leaf discs); assay type: in vivo; details: foliar, 120 h, 500 g/ha, after 5-6 days, read-out: efficacy
Procedure: Myzus persicae—Spray Test Solvent: 78 parts by weight of acetone • • 1.5 parts by weight of dimethylformamide Emulsifier: alkylaryl polyglycol ether To produce a suitable preparation of active compound, 1 part by weight of active compound is dissolved using the specified parts by weight of solvent and made up with water containing an emulsifier concentration of 1000 ppm until the desired concentration is attained. To produce further test concentrations, the formulation is diluted with emulsifier-containing water. Discs of Chinese cabbage leaves (Brassica pekinensis) infested by all stages of the green peach aphid (Myzus persicae) are sprayed with an active compound preparation of the desired concentration. After 5-6 days, the efficacy in % is determined. 100% means that all the aphids have been killed; 0% means that no aphids have been killed.

Row | Compound | pest or weed control at 20 ppm (Myzus persicae [1]) | pest or weed control at 500 g/ha (Myzus persicae [2])
1 | CCc1[nH]c(-c2cccc(Cl)c2)nc1C(=O)NS(=O)(=O)C(C)C [Example 131] | 90% | –
2 | Cn1cc(C(=O)NS(=O)(=O)c2cc(F)ccc2F)nc1-c1c(F)cccc1F [Example 455] | – | 90%
3 | Cn1cc(C(=O)NS(=O)(=O)c2cccs2)nc1-c1c(F)cccc1F [Example 349] | – | 100%
4 | COc1ccc(Cl)c(S(=O)(=O)NC(=O)c2cnc(-c3cc(Cl)cc(Cl)c3)[nH]2)c1 [Example 224] | – | 90%
5 | Cn1cc(C(=O)NS(=O)(=O)c2cc(Cl)cc(Cl)c2)nc1-c1ccccc1Cl [Example 166] | – | 90%
6 | Cn1cc(C(=O)NS(C)(=O)=O)nc1-c1ccccc1Cl [Example 65] | – | 90%
7 | COc1ccc(Cl)c(S(=O)(=O)NC(=O)c2nc(-c3cccc(Cl)c3)[nH]c2C)c1 [Example 619] | 100% | –
8 | Cn1cc(C(=O)NS(=O)(=O)CC(F)(F)F)nc1-c1c(F)cccc1F [Example 84] | – | 100%
9 | Cn1cc(C(=O)NS(=O)(=O)CC(F)(F)F)nc1-c1ccccc1F [Example 90] | – | 100%
10 | Cc1ccc(F)cc1S(=O)(=O)NC(=O)c1cc(C)n(-c2cccc(Cl)c2Cl)n1 [Example 305] | 90% | –
11 | Cn1cc(C(=O)NS(=O)(=O)c2cc(C(F)(F)F)ccc2C(F)(F)F)nc1-c1c(F)cccc1F [Example 400] | – | 90%
12 | CCc1[nH]c(-c2cccc(OC)c2)nc1C(=O)NS(=O)(=O)c1ccccc1Cl [Example 122] | – | 90%
13 | CS(=O)(=O)NC(=O)c1cn(-c2cccc(Cl)c2)c(-c2ccccc2Cl)n1 [Example 72] | – | 90%
14 | Cc1ccccc1S(=O)(=O)NC(=O)c1cn(C)c(-c2cccnc2)n1 [Example 488] | – | 90%
15 | COc1ccc(Cl)c(S(=O)(=O)NC(=O)c2nc(-c3ccc(Cl)c(Cl)c3)[nH]c2C)c1 [Example 615] | 100% | –
16 | COc1ccc(Cl)c(S(=O)(=O)NC(=O)c2nc(-c3c(F)cccc3F)[nH]c2C)c1 [Example 191] | 90% | –
17 | Cc1cccc(OS(C)(=O)=O)c1S(=O)(=O)NC(=O)c1cn(C)c(-c2c(F)cccc2F)n1 [Example 368] | 90% | –
18 | CSc1ccccc1-c1nc(C(=O)NS(=O)(=O)c2ccccc2Cl)cn1C [Example 213] | 100% | –
19 | Cn1cc(C(=O)NS(=O)(=O)c2cnc(Cl)s2)nc1-c1c(F)cccc1F [Example 345] | 90% | –
20 | CCc1[nH]c(-c2ccccc2Cl)nc1C(=O)NS(=O)(=O)C(C)C [Example 121] | – | 90%
21 | Cn1cc(C(=O)NS(=O)(=O)c2ccccc2C(F)(F)F)nc1-c1c(F)cc(F)cc1F [Example 5] | – | 90%
22 | CCc1[nH]c(-c2c(C)cccc2C)nc1C(=O)NS(=O)(=O)c1ccccc1Cl [Example 208] | 90% | –
23 | Cc1[nH]c(-c2cccc(C(C)C)c2)nc1C(=O)NS(=O)(=O)C(C)C [Example 620] | 90% | –

Row | Compound | pest or weed control at 20 ppm (Myzus persicae [1]) | pest or weed control at 500 g/ha (Myzus persicae [2])
24 | CCc1ccc(OC)c(S(=O)(=O)NC(=O)c2cn(C)c(-c3c(F)cccc3F)n2)c1 [Example 391] | – | 90%
25 | Cc1[nH]c(-c2cccc(C(C)C)c2)nc1C(=O)NS(=O)(=O)c1ccccc1Cl [Example 617] | 100% | –
26 | CCS(=O)(=O)NC(=O)c1cn(C)c(-c2c(F)cccc2F)n1 [Example 86] | – | 100%
27 | Cn1cc(C(=O)NS(=O)(=O)c2cccc(C#N)c2)nc1-c1ccccc1Cl [Example 167] | – | 90%
28 | Cn1cc(C(=O)NS(=O)(=O)CC(F)(F)F)nc1-c1c(Cl)cccc1Cl [Example 80] | – | 90%
29 | CCc1[nH]c(-c2ccc(F)cc2F)nc1C(=O)NS(=O)(=O)c1ccccc1C [Example 245] | 100% | –
30 | CCc1[nH]c(-c2ccc(Cl)cc2)nc1C(=O)NS(=O)(=O)C(C)C [Example 601] | 90% | –
31 | Cc1ccccc1S(=O)(=O)NC(=O)c1cn(C)c(-c2ccccc2OC(F)(F)F)n1 [Example 458] | – | 90%
32 | COc1ccccc1S(=O)(=O)NC(=O)c1cn(C)c(-c2ccccc2[N+](=O)[O-])n1 [Example 529] | – | 100%
33 | COc1ccc(OC)c(S(=O)(=O)NC(=O)c2cn(C)c(-c3ncccc3F)n2)c1 [Example 608] | – | 100%
34 | CCc1[nH]c(-c2cc(C)cc(C)c2)nc1C(=O)NS(=O)(=O)c1ccccc1C [Example 470] | 100% | –
35 | Cc1nc(Cl)sc1S(=O)(=O)NC(=O)c1cn(C)c(-c2c(F)cccc2F)n1 [Example 346] | – | 90%
36 | Cn1cc(C(=O)NS(=O)(=O)c2ccccc2N)nc1-c1ccccc1Cl [Example 132] | 100% | –
37 | Cn1cc(C(=O)NS(=O)(=O)c2ccccc2)nc1-c1ccccc1Cl [Example 229] | – | 100%
38 | Cc1ccccc1S(=O)(=O)NC(=O)c1cnc(-c2c(F)cccc2F)n1C [Example 163] | 100% | –
39 | COc1ccccc1S(=O)(=O)NC(=O)c1cn(C)c(-c2ccccc2SC)n1 [Example 215] | 90% | –
40 | CCc1[nH]c(-c2cc(F)cc(F)c2)nc1C(=O)NS(=O)(=O)C(C)C [Example 127] | – | 90%
41 | Cc1cccc(Cl)c1S(=O)(=O)NC(=O)c1cc(C)n(-c2cccc(Cl)c2Cl)n1 [Example 306] | 100% | –
42 | Cc1nn(C)c(Cl)c1S(=O)(=O)NC(=O)c1cn(C)c(-c2c(F)cccc2F)n1 [Example 348] | 100% | –
43 | Cn1cc(C(=O)NS(=O)(=O)c2cc(C#N)ccc2Cl)nc1-c1c(F)cccc1F [Example 452] | 100% | –
44 | Cc1cc(C(=O)NS(=O)(=O)c2ccccc2Br)nn1-c1cccc(Cl)c1Cl [Example 302] | 100% | –
45 | CN(C)S(=O)(=O)NC(=O)c1cn(C)c(-c2ccccc2Cl)n1 [Example 204] | – | 100%
46 | COc1ccc(Cl)c(S(=O)(=O)NC(=O)c2nc(-c3ccccc3Cl)c(C)[nH]2)c1 [Example 201] | 100% | –

Row | Compound | pest or weed control at 20 ppm (Myzus persicae [1]) | pest or weed control at 500 g/ha (Myzus persicae [2])
47 | CCc1[nH]c(-c2cccc(C(F)(F)F)c2)nc1C(=O)NS(=O)(=O)c1ccccc1Cl [Example 247] | 100% | –
48 | Cc1ccccc1S(=O)(=O)NC(=O)c1cn(C)c(-c2ccccn2)n1 [Example 493] | – | 100%
49 | CCc1[nH]c(-c2cc(Cl)cc(Cl)c2)nc1C(=O)NS(=O)(=O)c1ccccc1OC [Example 137] | 90% | –
50 | CCc1[nH]c(-c2cccc(Cl)c2)nc1C(=O)NS(=O)(=O)c1cc(OC)ccc1Cl [Example 130] | 90% | –
51 | CCOc1ccccc1S(=O)(=O)NC(=O)c1cn(C)c(-c2c(F)cccc2Cl)n1 [Example 154] | – | 90%
52 | COc1ccccc1S(=O)(=O)NC(=O)c1cn(C)c(-c2csc3ccccc23)n1 [Example 531] | 90% | –
53 | Cn1cc(C(=O)NS(C)(=O)=O)nc1-c1c(Cl)cccc1Cl [Example 83] | – | 90%
54 | CCc1c(C(=O)NS(=O)(=O)c2ccccc2Br)nc(-c2c(F)cccc2F)n1C [Example 198] | 100% | –
55 | CC(C)c1cccc(-c2nc(C(=O)NS(=O)(=O)c3ccccc3Cl)c(C(C)C)[nH]2)c1 [Example 612] | 100% | –
56 | Cn1cc(C(=O)NS(=O)(=O)c2ccc(C#N)cc2)nc1-c1ccccc1Cl [Example 168] | – | 90%
57 | Cc1cc(C(=O)NS(=O)(=O)c2ccc(Cl)s2)nn1-c1cc(Cl)ccc1Cl [Example 299] | 90% | –
58 | Cc1[nH]c(-c2cccc(Cl)c2)nc1C(=O)NS(=O)(=O)C(C)C [Example 236] | 90% | –
59 | CCS(=O)(=O)NC(=O)c1cn(C)c(-c2ccccc2C)n1 [Example 89] | – | 90%
60 | CSc1ccccc1-c1nc(C(=O)NS(=O)(=O)c2ccccc2C)cn1C [Example 214] | 100% | –
61 | Cc1[nH]c(C(=O)NS(=O)(=O)c2ccccc2Cl)nc1-c1ccccc1Cl [Example 418] | 90% | –
62 | COc1cccc(C(F)(F)F)c1S(=O)(=O)NC(=O)c1cn(C)c(-c2c(F)cccc2F)n1 [Example 374] | – | 100%
63 | O=C(NS(=O)(=O)c1ccccc1Cl)c1c[nH]c(-c2c(F)cccc2F)n1 [Example 412] | 90% | –
64 | CCc1[nH]c(-c2cccc(Br)c2)nc1C(=O)NS(=O)(=O)c1ccccc1Cl [Example 136] | 90% | –
65 | Cc1[nH]c(C(=O)NS(=O)(=O)c2ccccc2Cl)nc1-c1c(F)cccc1F [Example 145] | – | 90%
66 | CCCOc1ccc(Cl)c(S(=O)(=O)NC(=O)c2cn(C)c(-c3c(F)cccc3F)n2)c1 [Example 180] | 100% | –
67 | CCc1[nH]c(-c2cccc(C(F)(F)F)c2)nc1C(=O)NS(=O)(=O)C(C)C [Example 248] | 100% | –
68 | COc1ccc(Br)cc1S(=O)(=O)NC(=O)c1nc(-c2c(F)cccc2F)n(C)n1 [Example 327] | 90% | –
69 | COc1ccc(OC)c(S(=O)(=O)NC(=O)c2cn(C)c(-c3ccccc3S(C)(=O)=O)n2)c1 [Example 509] | 100% | –
